Data reported in PubChem BioAssay AID330 (DTP/NCI, 2004).
“And” between values parts separate entries of the source, which are not always exact repeats. Equal entries are not always repeated. Inconclusive results and toxic doses are left out. The calls were made as follows: active = survival T/C of 150% or more; inactive = T/C below 125% in these data.

Test system: P388 leukemia ip, CD2F1 mice, survival T/C
Experiment: NCI In Vivo Anticancer Drug Screen. Data for tumor model P388 Leukemia (intraperitoneal) in CD2F1 (CDF1) mice
Settings: endpoint: median survival time, higher = longer survival
Summary of the method: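 Mice carrying the transplanted tumor received test compound or vehicle. Survival was recorded in each group, and the value is the treated-group measurement divided by that of the vehicle-treated control group.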

[1] = dose: 100.0 mg/kg/injection, schedule: Q01DX009 (ip), vehicle: Klucel (hydroxypropylcellulose) (HPC)
[2] = dose: 200.0 mg/kg/injection, schedule: Q01DX009 (ip), vehicle: Klucel (hydroxypropylcellulose) (HPC)
[3] = dose: 50.0 mg/kg/injection, schedule: Q01DX009 (ip), vehicle: Klucel (hydroxypropylcellulose) (HPC)
[4] = dose: 12.5 mg/kg/injection, schedule: Q04DX003 (ip), vehicle: saline with Tween-80
[5] = dose: 25.0 mg/kg/injection, schedule: Q04DX003 (ip), vehicle: saline with Tween-80
[6] = dose: 50.0 mg/kg/injection, schedule: Q04DX003 (ip), vehicle: saline with Tween-80
[7] = dose: 50.0 mg/kg/injection, schedule: Q01DX009 (ip), vehicle: saline with Tween-80

Measured: T/C

NC(=O)C1CCCC12NC(=O)NC2=O (stereo not drawn)
inactive: [1] 90 % of control | [2] 90 % of control | dose: 400.0 mg/kg/injection, schedule: Q01DX009 (ip), vehicle: Klucel (hydroxypropylcellulose) (HPC) 100 % of control

O=C(Oc1ccccc1)N1CCCC(O)C1 (stereo not drawn)
inactive: [3] 96 % of control | [1] 105 % of control | [2] 100 % of control

O=C1CCC(c2nnc(COc3ccc(Cl)cc3)o2)N1Cc1ccccc1 (stereo not drawn)
inactive: dose: 100.0 mg/kg/injection, schedule: Q01DX001 (ip), vehicle: saline with Tween-80 99 % of control | dose: 200.0 mg/kg/injection, schedule: Q01DX001 (ip), vehicle: saline with Tween-80 102 % of control | dose: 400.0 mg/kg/injection, schedule: Q01DX001 (ip), vehicle: saline with Tween-80 98 % of control

CN1P(=N)(N)N=P(c2ccccc2)(c2ccccc2)N=P1(c1ccccc1)c1ccccc1 (stereo not drawn)
inactive: dose: 12.5 mg/kg/injection, schedule: Q01DX009 (ip), vehicle: Klucel (hydroxypropylcellulose) (HPC) 99 % of control and 113 % of control and 121 % of control | dose: 25.0 mg/kg/injection, schedule: Q01DX009 (ip), vehicle: Klucel (hydroxypropylcellulose) (HPC) 108 % of control and 115 % of control and 93 % of control | [3] 123 % of control and 88 % of control

CNC(=O)N1CC2CCC(C)(C1)OC2(C)C (stereo not drawn)
inactive: dose: 50.0 mg/kg/injection, schedule: Q01DX005 (ip), vehicle: Klucel (hydroxypropylcellulose) (HPC) 97 % of control | dose: 100.0 mg/kg/injection, schedule: Q01DX005 (ip), vehicle: Klucel (hydroxypropylcellulose) (HPC) 100 % of control and 103 % of control | dose: 200.0 mg/kg/injection, schedule: Q01DX005 (ip), vehicle: Klucel (hydroxypropylcellulose) (HPC) 103 % of control and 106 % of control

COc1cccc2c1C(=O)c1c(O)c3c(c(O)c1C2=N)C[C@@](O)(C(C)=O)CC3OC1CC(N(Cc2ccccc2)Cc2ccccc2)C(O)C(C)O1 (stereo partly drawn)
inactive: [4] 102 % of control | [5] 98 % of control | [6] 102 % of control and 123 % of control | dose: 100.0 mg/kg/injection, schedule: Q04DX003 (ip), vehicle: saline with Tween-80 111 % of control and 122 % of control | dose: 200.0 mg/kg/injection, schedule: Q04DX003 (ip), vehicle: saline with Tween-80 124 % of control | dose: 400.0 mg/kg/injection, schedule: Q04DX003 (ip), vehicle: saline with Tween-80 106 % of control

CSc1ncnc2c1ncn2C1OC(CO)C(O)C1O (stereo not drawn)
inactive: dose: 2.0 mg/kg/injection, schedule: Q01DX010 (ip), vehicle: saline 107 % of control | dose: 4.0 mg/kg/injection, schedule: Q01DX010 (ip), vehicle: saline 102 % of control and 104 % of control | dose: 8.0 mg/kg/injection, schedule: Q01DX010 (ip), vehicle: saline 100 % of control and 116 % of control | dose: 16.0 mg/kg/injection, schedule: Q01DX010 (ip), vehicle: saline 109 % of control and 120 % of control | dose: 25.0 mg/kg/injection, schedule: Q01DX009 (ip), vehicle: saline with Tween-80 95 % of control | [7] 93 % of control | dose: 54.0 mg/kg/injection, schedule: Q01DX001 (ip), vehicle: saline 111 % of control | dose: 82.0 mg/kg/injection, schedule: Q01DX001 (ip), vehicle: saline 117 % of control and 118 % of control | dose: 100.0 mg/kg/injection, schedule: Q01DX009 (ip), vehicle: saline with Tween-80 104 % of control | dose: 200.0 mg/kg/injection, schedule: Q01DX009 (ip), vehicle: saline with Tween-80 101 % of control

c1ccc2c3c([nH]c2c1)CCN1CCN(CCc2ccncc2)CC31 (stereo not drawn)
inactive: dose: 100.0 mg/kg/injection, schedule: Q04DX002 (ip), vehicle: Klucel (hydroxypropylcellulose) (HPC) 100 % of control | dose: 200.0 mg/kg/injection, schedule: Q04DX002 (ip), vehicle: Klucel (hydroxypropylcellulose) (HPC) 101 % of control | dose: 400.0 mg/kg/injection, schedule: Q04DX002 (ip), vehicle: Klucel (hydroxypropylcellulose) (HPC) 96 % of control

CS(=O)(=O)CCN(N=O)C(=N)N[N+](=O)[O-]
inactive: [4] 118 % of control | [5] 118 % of control | [6] 118 % of control
active: [7] 159 % of control | dose: 66.0 mg/kg/injection, schedule: Q04DX003 (ip), vehicle: saline with Tween-80 154 % of control | dose: 150.0 mg/kg/injection, schedule: Q04DX003 (ip), vehicle: saline with Tween-80 154 % of control

O=C(O)c1ccccc1C(=O)c1ccccn1
inactive: [3] 99 % of control | [1] 97 % of control | [2] 97 % of control
